In PubChem BioAssay AID588523 (Johns Hopkins Ion Channel Center, 2011) one finds IC50 data, which are given here for 58 molecules.

Active and inactive are the calls of the source.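 How the source made its calls: active means IC50 below 100 µM from duplicate concentration-response curves; inactive means IC50 above 100 µM.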

Sequence of Regulator of G-protein signaling 4 (Rattus norvegicus) (P49799 whole entry, looked up): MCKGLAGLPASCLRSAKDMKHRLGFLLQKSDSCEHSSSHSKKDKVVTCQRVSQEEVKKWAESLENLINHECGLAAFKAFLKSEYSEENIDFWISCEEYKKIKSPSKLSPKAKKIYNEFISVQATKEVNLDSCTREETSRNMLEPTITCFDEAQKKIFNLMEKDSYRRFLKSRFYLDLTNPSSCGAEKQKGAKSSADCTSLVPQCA

This experiment addresses Regulator of G-protein signaling 4 (Rattus norvegicus) (UniProt P49799). Put plainly: RGS4 binding to activated Galpha-o blockers – biochemical, rat RGS4, AlF4-dependent, flow cytometry bead assay, dose response (AID 588523). The note with it: FCPIA, bead fluorescence.
With `O=C(N/N=C/c1cc([N+](=O)[O-])ccc1O)NC12CC3CC(CC(C3)C1)C2`, the IC50 is > 110 µM (inactive).
For the molecule `CN1CCc2cc(O)cc3c2[C@H]1Cc1ccc(O)c(O)c1-3`, the IC50 was 7.5 µM.
Under `Cc1ccc(/C=C2\C(=O)NC(=S)N(c3ccc(F)cc3)C2=O)s1` stands 22.1 µM; under `Cc1ccc(CNC(=O)c2cn(C3CCCCC3)c(=O)c3c2c2ccccc2n3C)o1`, > 110 µM (inactive).
Under `O=C(O)c1ccc2c(c1)C(=O)N(c1cccc(C(=O)/C=C/c3ccccc3)c1)C2=O` stands > 110 µM (inactive); under `CCCN1CCc2cc(O)cc3c2[C@H]1Cc1ccc(O)c(O)c1-3`, 9.4 µM; under `CN1C/C(=C/c2ccncc2)C(=O)/C(=C/c2ccncc2)C1`, 5.4 µM.
Under `O=C1/C(=C\c2ccc(Cl)cc2Cl)N2CCC1CC2` stands > 110 µM (inactive); under `COc1ccc(NC(=O)/C(Cl)=C(/Cl)S(=O)Cc2ccccc2)cn1` (stereo not drawn), 1.7 µM.
As to `Cc1cc(-c2n[nH]c(=S)n2/N=C/C(Br)=C/c2ccccc2)n[nH]1`, the IC50 was 26.1 µM.
Under `COc1cccc(/C=C/C(=O)c2c(O)cc(C)oc2=O)c1O` stands > 110 µM (inactive); under `O=C1N=c2ccccc2=C1c1c(O)n(-c2cccc(F)c2)[nH]c1=O`, 10.3 µM; under `Cn1c(OCc2ccco2)nc2c1c(=O)n(Cc1ccc(Cl)c(Cl)c1)c(=O)n2C`, > 110 µM (inactive).
Under `Oc1c(Cl)cc(Cl)c2c1NCCC2` stands > 110 µM (inactive).
As to `O=C/C=C/c1c(-c2ccccc2)cc2oc3ccccc3cc1-2`, the IC50 is > 110 µM (inactive).
Take `COc1ccc(-c2csc(NC3OC(=O)c4c3ccc(OC)c4OC)n2)cc1OC` (stereo not drawn): the IC50 is > 110 µM (inactive).
Under `CCOC(=O)/C=C/C(=O)OCC(=O)N1CCN(C(=O)c2ccco2)CC1` stands 73.9 µM; under `Cc1ccc(C(C2C(=O)CC(C)(C)CC2=O)C2C(=O)CC(C)(C)CC2=O)s1`, 86.8 µM.
Under `Cc1cc2nc(CS)[nH]c2cc1C` stands 23.6 µM.
`COc1ccc(NC(=O)/C(C#N)=C\c2ccc(Sc3nncn3C)c([N+](=O)[O-])c2)cc1`: the IC50 was > 110 µM (inactive).
Under `N#C/C(=C/c1ccc(Cl)c([N+](=O)[O-])c1)c1ccccn1` stands > 110 µM (inactive); under `CCOC(=O)C1=C(O)/C(=C\c2cccc(OC)c2)N=C1C`, > 110 µM (inactive); under `O=[N+]([O-])c1ccc(O)c(/C=N/NC(=S)Nc2ccc(Cl)cc2Cl)c1`, > 110 µM (inactive).
Under `Cc1csc(NC(=O)COCC(=O)O)c1-c1nc2ccccc2s1` stands > 110 µM (inactive); under `O=C(CCNc1ccc(F)cc1)c1ccco1`, > 110 µM (inactive); under `CN1C(=O)S/C(=C\c2ccccc2OCc2ccc(C(=O)O)cc2)C1=O`, > 110 µM (inactive).
Under `Cc1nc2c(=O)n(C)c(=O)n(C)c2nc1Cl` stands 78.7 µM; under `O=C1/C(=C\c2ccc(Cl)c(Cl)c2)N2CCC1CC2`, > 110 µM (inactive); under `CN1C(=O)/C(=C\c2ccc(Br)s2)C(=O)NC1=S`, 12.5 µM.
Take `O=C(O)c1ccc(/C=C/C(=O)c2ccc3c(c2)OCCCO3)cc1`: the IC50 is > 110 µM (inactive).
Under `N[C@@H](Cc1cc(Br)c(O)c(Br)c1)C(=O)O` stands > 110 µM (inactive); under `COc1cc2c(cc1O)C(SC)=NC(C)(C)C2`, > 110 µM (inactive).
Under `O=C(/C=C/c1ccc([N+](=O)[O-])cc1)c1ccco1` stands > 110 µM (inactive).
Under `COc1ccc2cc(C3C(C#N)=C(N)OC(C)=C3C(C)=O)c(Cl)nc2c1` (stereo not drawn) stands > 110 µM (inactive); under `Cc1cccc(N2C(=O)/C(=C/c3ccc(C(=O)O)cc3)c3ccccc3C2=O)c1`, > 110 µM (inactive).
On to `COC(=O)CSc1[nH]c2ccccc2c1[N+](=O)[O-]`, for which the IC50 is > 110 µM (inactive).
Regarding `COC(=O)CSc1[nH]c2cc(C)ccc2c1[N+](=O)[O-]`, the IC50 is > 110 µM (inactive).
For the molecule `O=C1/C(=C/c2ccncc2)CCC/C1=C\c1ccncc1`, the IC50 is 13.6 µM.
`CC1=NOC(=O)/C1=C/c1ccc(O)cc1`: the IC50 is > 110 µM (inactive).
Under `Cc1ccc(C(C2=C(O)CC(C)(C)CC2=O)C2C(=O)CC(C)(C)CC2=O)o1` (stereo not drawn) stands > 110 µM (inactive); under `O=C1C=C(NC2=CC3OC(c4ccccc4)OCC3OC2=O)CCC1` (stereo not drawn), > 110 µM (inactive); under `Cc1ccccc1OCc1nnc(SCC(=O)Nc2ccc3c(c2)oc2ccccc23)n1C`, > 110 µM (inactive).
Under `CC(C)OP(=O)(OC(C)C)/C(C=O)=N\Nc1ccc([N+](=O)[O-])cc1` stands > 110 µM (inactive).
Consider `Cc1c(NC(=O)c2coc(=O)c(Br)c2)c(=O)n(-c2ccccc2)n1C`, for which the IC50 is > 110 µM (inactive).
Turning to `CCOCCCNC(=O)/C(C#N)=C\c1ccc([N+](=O)[O-])o1`, the IC50 is > 110 µM (inactive).
For `O=C(/C=C/c1ccncc1)c1ccc2c(c1)OCCO2`, the IC50 was 82.2 µM.
Consider `NC(=O)N/N=C/c1c(Sc2nnnn2-c2ccccc2)nc2ccccn2c1=O`, for which the IC50 is > 110 µM (inactive).
On to `CN(C)C(=O)COc1ccc(C(=O)/C=C/c2cccnc2)cc1`, for which the IC50 is > 110 µM (inactive).
Under `Cc1ccc(/C=C/C(=O)N2CC(C)CC(C)C2)o1` (stereo not drawn) stands 74.9 µM; under `CN(C)c1ccc(C(C[N+](=O)[O-])c2c(N)n(C)c(=O)n(C)c2=O)c(F)c1C#N` (stereo not drawn), > 110 µM (inactive).
Under `COc1ccc(OC)c(N2C(=O)NC(=O)/C(=C/c3ccc([N+](=O)[O-])s3)C2=O)c1` stands 11.9 µM.
Under `CN(C)c1oc(-c2ccccc2[N+](=O)[O-])nc1C#N` stands > 110 µM (inactive).
As to `CCOCCCNC(=O)/C(C#N)=C\c1ccc(Cl)c([N+](=O)[O-])c1`, the IC50 is > 110 µM (inactive).
Turning to `O=C1NC(=S)N(c2ccccc2F)C(=O)/C1=C\c1cccs1`, the 50% inhibitory concentration (IC50) is 21.3 µM.
Under `CC(C)(C)c1ccc(Cn2nnc3c(=O)[nH]c(C4CCN(C(=O)Cc5cccs5)CC4)nc32)cc1` stands > 110 µM (inactive); under `COc1ccc(C(C[N+](=O)[O-])c2c(-c3ccccc3)cc3ccccn23)cc1OC` (stereo not drawn), > 110 µM (inactive).
Under `CC1=NN(c2ccc(C(=O)O)cc2)C(=O)/C1=C\c1ccc(OC(=O)c2cccs2)cc1` stands 44 µM; under `O=C(O)c1ccc(/C=C2\COc3ccccc3C2=O)cc1`, > 110 µM (inactive).
